Literature values, collected in patent US20210319872A1, “DRUG AND DEVICE COMBINATION PRODUCTS WITH IMPROVED SAFETY AND EFFICACY PROFILES” (priority 2016, published 2021).
Like-named read-outs stand apart in the source and are kept apart here.

[1] = Myelodysplastic syndrome, grade 3 or 4

In the case of `COCCc1ccc(OCC(O)CNC(C)C)cc1` (stereo not shown) [Metoprolol (Lopressor, Toprol XL)], the Bradyarrhythmia (in vivo) is listed as “Cardiovascular: Bradyarrhythmia (3%), Cold extremities (1%),”, the Bronchospasm (in vivo) is listed as “Respiratory: Bronchospasm (1%)” and the Cold extremities (in vivo) is listed as “Cardiovascular: Bradyarrhythmia (3%), Cold extremities (1%),”. The “Common side effects, listed without incidence” value (in vivo) was “Neurologic: Dizziness (10%), Fatigue (10%), Headache”, the Constipation (in vivo) was “Gastrointestinal: Constipation (1%), Diarrhea (5%), Indigestion” and the Depression (in vivo) was “Psychiatric: Depression (5%)”. For the same compound, the Diarrhea (in vivo) was “Gastrointestinal: Constipation (1%), Diarrhea (5%), Indigestion”, the Dizziness (in vivo) was “Neurologic: Dizziness (10%), Fatigue (10%), Headache” and the Dyspnea (in vivo) was “Respiratory: Dyspnea (3%), Wheezing (1%)”. The Fatigue (in vivo) was “Neurologic: Dizziness (10%), Fatigue (10%), Headache”, the Heart failure (in vivo) was “Heart failure (1%), Hypotension (1%)” and the Hypotension (in vivo) was “Heart failure (1%), Hypotension (1%)”. The Indigestion (in vivo) was “(1%), Nausea (1%)”, the Nausea (in vivo) was “(1%), Nausea (1%)” and the Pruritus (in vivo) was “Dermatologic: Pruritus (5%), Rash (5%)”. The Rash (in vivo) was “Dermatologic: Pruritus (5%), Rash (5%)” and the Wheezing (in vivo) was “Respiratory: Dyspnea (3%), Wheezing (1%)”.
For `CC(C)NCC(O)c1ccc(NS(C)(=O)=O)cc1` (stereo not shown) [Sotalol (Betapace)], the Bradyarrhythmia (in vivo) is listed as 12.3% to 16%; pediatric, 4%), Cardiac dysrhythmia (5%),, the Cardiac dysrhythmia (in vivo) is listed as 12.3% to 16%; pediatric, 4%), Cardiac dysrhythmia (5%), and the Cerebrovascular accident (in vivo) is listed as “Neurologic: Cerebrovascular accident (1%)”. The Chest pain (in vivo) was “Cardiovascular: Chest pain (Adult, 16%; pediatric, 4%),”, the Congestive heart failure (in vivo) was “Congestive heart failure (1.2% to 3.3%), Heart failure (5%),” and the Disturbance of consciousness (in vivo) was “Neurologic: Disturbance of consciousness (4%), Dizziness (13.1%”. For the same compound, the Dizziness (in vivo) was “Neurologic: Disturbance of consciousness (4%), Dizziness (13.1%”, the Dyspnea (in vivo) was “Respiratory: Dyspnea (9.2% to 21%)” and the Fatigue (in vivo) was “Other: Fatigue (18.9% to 20%)”. The Heart failure (in vivo) was “Congestive heart failure (1.2% to 3.3%), Heart failure (5%),”, the Lightheadedness (in vivo) was “Lightheadedness (12%)” and the Rash (in vivo) was “Dermatologic: Rash (5%)”. The Torsades de pointes (in vivo) was “Prolonged QT interval, Torsades de pointes (0.5% to 4%)”.
In the case of `CC(C)(C)NCC(O)COc1cccc2c1CC(O)C(O)C2` (stereo not shown) [Nadolol (Corgard)], the Bradyarrhythmia (in vivo) is listed as “Cardiovascular: Bradyarrhythmia (2%)”, the Cardiac dysrhythmia (in vivo) is listed as “Cardiovascular: Atrioventricular block, Cardiac dysrhythmia (1%),” and the Dizziness (in vivo) is listed as “Neurologic: Dizziness (2%)”. For the same compound, the Fatigue (in vivo) was “Other: Fatigue (2%)”, the Heart failure (in vivo) was “Heart failure (1%)” and the “Serious side effects, listed without incidence or only as rare” value (in vivo) was “Cardiovascular: Atrioventricular block, Cardiac dysrhythmia (1%),”.
For `CCOC(=O)[C@H](CCc1ccccc1)N[C@@H](C)C(=O)N1[C@H](C(=O)O)C[C@@H]2CCC[C@@H]21` [Ramipril (Altace)], the Cough (in vivo) is listed as “Respiratory: Cough (8% to 12%)”, the Dizziness (in vivo) is listed as “Neurologic: Asthenia, Dizziness (2.2% to 4%), Headache (5.4%)” and the Headache (in vivo) is listed as “Neurologic: Asthenia, Dizziness (2.2% to 4%), Headache (5.4%)”. The Hypotension (in vivo) was “Cardiovascular: Hypotension (11%)”.
For `O=c1n(CCCN2CCN(c3cccc(Cl)c3)CC2)nc2ccccn12` [Trazodone (Desyrel)], the Backache (in vivo) is listed as “Musculoskeletal: Backache (5%)”, the Confusion (in vivo) is listed as “Neurologic: Confusion (up to 5.7%), Dizziness (25%), Headache” and the Constipation (in vivo) is listed as “Gastrointestinal: Constipation (7% to 8%), Diarrhea (up to 9%),”. The Diarrhea (in vivo) was “Gastrointestinal: Constipation (7% to 8%), Diarrhea (up to 9%),”, the Dizziness (in vivo) was “Neurologic: Confusion (up to 5.7%), Dizziness (25%), Headache” and the Fatigue (in vivo) was “Other: Fatigue (5.7% to 15%)”. For the same compound, the Hypersensitivity reaction (in vivo) was “Immunologic: Hypersensitivity reaction (less than 1%)”, the Hypotension (in vivo) was “Cardiovascular: Cardiac dysrhythmia, Hypotension (3.8% to 7%),” and the Nausea (in vivo) was “Nausea (21%), Vomiting (at least 1%), Xerostomia (14% to 33.8%)”. The Vomiting (in vivo) was “Nausea (21%), Vomiting (at least 1%), Xerostomia (14% to 33.8%)” and the Xerostomia (in vivo) was “Nausea (21%), Vomiting (at least 1%), Xerostomia (14% to 33.8%)”.
For `CC(C)(C)NC[C@H](O)COc1nsnc1N1CCOCC1` [Timolol (Blocadren)], the “Burning sensation in eye” value (in vivo) is given as “sensation in eye (Ophthalmic, 12.5% to 20%), Dry eyes”, the Cardiac dysrhythmia (in vivo) is given as “Cardiovascular: Cardiac dysrhythmia (1%), Myocardial infarction” and the Confusion (in vivo) is given as “Neurologic: Confusion (13%), Dizziness (2.3% to 6%, oral),”. For the same compound, the Depression (in vivo) was “Psychiatric: Depression (9.2%, ophthalmic), Hallucinations (11%),”, the Hallucinations (in vivo) was “Psychiatric: Depression (9.2%, ophthalmic), Hallucinations (11%),” and the Headache (in vivo) was “Headache (1.7%, oral; 1% to 5%, ophthalmic)”. For the same compound, the Psychotic disorder (in vivo) was “Psychotic disorder (3%)”, the “Serious side effects, listed without incidence or only as rare” value (in vivo) was “Cardiovascular: Cardiac dysrhythmia (1%), Myocardial infarction” and the Bradyarrhythmia (in vivo, po) was “Cardiovascular: Angina, Bradyarrhythmia (5% to 9.1%, oral),”. The Bronchospasm (in vivo, po) was “Respiratory: Bronchospasm (0.6%, oral)”, the Dizziness (in vivo, po) was “Neurologic: Confusion (13%), Dizziness (2.3% to 6%, oral),” and the Dyspnea (in vivo, po) was “Respiratory: Cough, Dyspnea (1.7%, oral)”. For the same compound, the Fatigue (in vivo, po) was “Other: Fatigue (3.4% to 5%, oral), Infectious disease”, the Headache (in vivo, po) was “Headache (1.7%, oral; 1% to 5%, ophthalmic)” and the Heart failure (in vivo, po) was “Heart failure (8%, oral), Hypotension”.
For `Cc1cc2c(s1)Nc1ccccc1N=C2N1CCN(C)CC1` [Olanzapine (Zyprexa)], the Akathisia (in vivo) is listed as “Neurologic: Akathisia (5% to 27%), Asthenia (2% to 20%),”, the Asthenia (in vivo) is listed as “Neurologic: Akathisia (5% to 27%), Asthenia (2% to 20%),” and the Constipation (in vivo) is listed as “Gastrointestinal: Constipation (4% to 11%), Xerostomia (Adult, up”. The Dizziness (in vivo) was “Dizziness (Adult, 1.6% to 18%; adolescent, 7% to 8%),”, the Hyperprolactinemia (in vivo) was “adolescent, up to 14%), Hyperprolactinemia (30% to 61.1%),” and the Increased appetite (in vivo) was “Increased appetite (Adult, 3% to 24%; adolescent, 17% to 29%),”. For the same compound, the Orthostatic hypotension (in vivo) was “Cardiovascular: Orthostatic hypotension (More than 5%),”, the Peripheral edema (in vivo) was “Peripheral edema (3% to 6%)” and the Personality disorder (in vivo) was “Psychiatric: Personality disorder (8%)”. For the same compound, the Serum triglycerides raised (in vivo) was “Serum triglycerides raised (20.8% to 40%), Weight increased, 7%”, the Somnolence (in vivo) was “Somnolence (IM, 6%; oral, 20% to 52%), Tremor (1% to 23%)” and the Tremor (in vivo) was “Somnolence (IM, 6%; oral, 20% to 52%), Tremor (1% to 23%)”. The Somnolence (in vivo, po) was “Somnolence (IM, 6%; oral, 20% to 52%), Tremor (1% to 23%)”.
For `Nc1cccc2c1CN(C1CCC(=O)NC1=O)C2=O` (stereo not shown) [Revlimid], the “Cataract, Grade 3 or 4” value (Multiple myeloma, grade 3.4) is listed as 1.4% (grade 3.4)), the Multiple organ failure [1] is listed as 1.4% and the Pneumonitis [1] is listed as “syndrome, grade 3 or 4, 1.4%), Pulmonary embolism, Grade 3 or 4”. The Pulmonary hypertension [1] was 1.4%, the Hepatotoxicity (in vivo) was 15% and the Myocardial infarction (in vivo) was less than 5%. For the same compound, the “Common side effect, Other” value (listed without frequency) was “Infectious disease”, the “Serious side effect, Dermatologic” value (listed without frequency) was “Stevens-Johnson syndrome” and the “Serious side effect, Hematologic” value (listed without frequency) was “Thrombosis”. For the same compound, the “Serious side effect, Hepatic” value (listed without frequency) was “Liver failure”, the “Serious side effect, Other” value (listed without frequency) was “Other: Angioedema, Multiple organ failure (Myelodysplastic” and the “Serious side effect, Renal” value (listed without frequency) was “Renal: Interstitial nephritis, acute”. The “Anemia, All grades” value (mantle cell lymphoma) was 31%, the “Anemia, Grade 3 or 4” value (mantle cell lymphoma) was 11% and the Arthralgia (mantle cell lymphoma) was 8%. The Asthenia (mantle cell lymphoma) was 14%, the Backache (mantle cell lymphoma) was 13% and the Constipation (mantle cell lymphoma) was 16%. The Cough (mantle cell lymphoma) was 28%, the Diarrhea (mantle cell lymphoma) was 31% and the Dyspnea (mantle cell lymphoma) was 16.9%; mantle cell lymphoma, 18%), Epistaxis (Myelodysplastic. The Fatigue (mantle cell lymphoma) was 34%, the Fever (mantle cell lymphoma) was 23% and the Hypokalemia (mantle cell lymphoma) was 13%. The Hypoxia (mantle cell lymphoma) was “Respiratory: Hypoxia (Mantle cell lymphoma, 2%), Pleural”, the “Neutropenia, All grades” value (mantle cell lymphoma) was 49% and the “Neutropenia, Grade 3 or 4” value (mantle cell lymphoma) was 43%. The Peripheral edema (mantle cell lymphoma) was 16%, the Pleural effusion (mantle cell lymphoma) was “effusion (Mantle cell lymphoma, 7%), Pneumonia (Multiple” and the Pneumonia (mantle cell lymphoma) was “mantle cell lymphoma, 14%), Pneumonitis (Myelodysplastic”. For the same compound, the Pruritus (mantle cell lymphoma) was 17%, the Rash (mantle cell lymphoma) was “cell lymphoma, 22%)” and the “Thrombocytopenia, All grades” value (mantle cell lymphoma) was 36%). The “Thrombocytopenia, Grade 3 or 4” value (mantle cell lymphoma) was 28%, the Tumor flare (mantle cell lymphoma) was 10% and the Upper respiratory infection (mantle cell lymphoma) was 13%. For the same compound, the Arthralgia (multiple myeloma) was “Musculoskeletal: Arthralgia (Multiple myeloma, 19%;”, the Asthenia (multiple myeloma) was “Neurologic: Asthenia (Multiple myeloma, 28.2%; myelodysplastic” and the “Atrial fibrillation, Grade 3 or 4” value (multiple myeloma) was 3.7%. For the same compound, the Blurred vision (multiple myeloma) was “Ophthalmic: Blurred vision (Multiple myeloma, 17.3%)”, the “Cataract, Grade 3 or 4” value (multiple myeloma) was “Ophthalmic: Cataract, Grade 3 or 4 (Multiple myeloma, 9.6%;” and the “Congestive heart failure, Grade 3 or 4” value (multiple myeloma) was “failure, Grade 3 or 4 (multiple myeloma, 1.4%), Myocardial”. The Constipation (multiple myeloma) was “Gastrointestinal: Constipation (Multiple myeloma, 40.5%;”, the Cough (multiple myeloma) was “Respiratory: Cough (Multiple myeloma, 22.7%; myelodysplastic” and the Cramp (multiple myeloma) was 33.4%. For the same compound, the Insomnia (multiple myeloma) was “Insomnia (Multiple myeloma, 27.6%; myelodysplastic syndrome,”, the Peripheral edema (multiple myeloma) was “Cardiovascular: Peripheral edema (multiple myeloma, 26.3%;” and the Pruritus (multiple myeloma) was “Dermatologic: Pruritus (Multiple myeloma, 7.6%; myelodysplastic”. For the same compound, the Rash (multiple myeloma) was no more than 26.1%, the Tremor (multiple myeloma) was 21.2% and the Upper respiratory infection (multiple myeloma) was 15.5%), Upper respiratory infection (Multiple myeloma, 24.6%;. For the same compound, the “Anemia, All grades” value (myelodysplastic syndrome) was 43.8%; myelodysplastic syndrome, 11.5%; mantle cell lymphoma,, the “Anemia, Grade 3 or 4” value (myelodysplastic syndrome) was 18.2%; myelodysplastic syndrome, 6.1%; mantle cell lymphoma, and the Arthralgia (myelodysplastic syndrome) was 21.6%. For the same compound, the Asthenia (myelodysplastic syndrome) was 14.9%, the Backache (myelodysplastic syndrome) was 20.9% and the Constipation (myelodysplastic syndrome) was 23.6%. The Cough (myelodysplastic syndrome) was 19.6%, the Cramp (myelodysplastic syndrome) was 18.2% and the Diarrhea (myelodysplastic syndrome) was 48.6%. For the same compound, the Epistaxis (myelodysplastic syndrome) was 14.9%, the Fatigue (myelodysplastic syndrome) was 31.1% and the Fever (myelodysplastic syndrome) was 20.9%. The Hypokalemia (myelodysplastic syndrome) was 17.1%; myelodysplastic syndrome, 10.8%; mantle cell lymphoma,, the Insomnia (myelodysplastic syndrome) was 10.1% and the Nasopharyngitis (myelodysplastic syndrome) was 23%. The “Neutropenia, All grades” value (myelodysplastic syndrome) was 58.8%, the “Neutropenia, Grade 3 or 4” value (myelodysplastic syndrome) was 53.4% and the Peripheral edema (myelodysplastic syndrome) was 20.3%. For the same compound, the Pneumonia (myelodysplastic syndrome) was 11.5%, the Pruritus (myelodysplastic syndrome) was 41.9% and the Rash (myelodysplastic syndrome) was 35.8%. For the same compound, the “Thrombocytopenia, All grades” value (myelodysplastic syndrome) was 21.5%; myelodysplastic syndrome, 61.5%; mantle cell lymphoma,, the “Thrombocytopenia, Grade 3 or 4” value (myelodysplastic syndrome) was 12.2%; myelodysplastic syndrome, 50%; mantle cell lymphoma, and the Upper respiratory infection (myelodysplastic syndrome) was 14.9%.
